Data set [1] can be described thus: subcutaneous immunization in BALB/c mice. The note with it: Day 42 serum; 25 μg s.c. Days 0, 21, 35, adjuvant on Day 0.
Protocol: Female BALB/c mice (6-8 weeks) were randomized into immunization groups on Day 0 (n=5 per group) Immunizations were performed on Days 0, 21, 35 by subcutaneous injection of 25 μg of antigen. Antigens were emulsified in adjuvant (TiterMax) for injection on Day 0 and administered in PBS for Days 21 and 35. Serum pre-bleeds were performed on Days 0, 21, 35 prior to immunizations. Final bleeds for max titer response were taken on Day 42.
The subject of another data set is MC38 colon cancer tumors. Description: MC38 syngeneic tumor model in C57BL6 mice. It counts as in vivo, mouse. An excerpt:
To assess the tumor growth inhibition potential of RFX-980869, the cross-reactivity of RFX-980869 with mouse VEGF-A (data not shown) was studied and used the syngeneic MC38 mouse tumor model. MC38 colon cancer tumors were established in C57BL6 mice transgenic for human PD-1, and reached 82 mm3 prior to initiation of treatment.
Female C57BL6 mice transgenic for human PD-1 (12-13 weeks) were purchased from Beijing Biocytogen Co.). […] MC38 tumor cells (1×10^6) were implanted subcutaneously in the right front flank and tumors were allowed to establish until the mean volume was 82 mm^3. Mice were randomized into treatment groups (N=6 per group) on Day 0 when treatment initiation began. […] All data is plotted as mean ±SEM.

A short description of data set [2]: anti-drug antibodies in serum of the MC38 tumor study. It counts as in vivo, mouse. The note with it: Day 22 serum, low and high dose groups. The source says:
FIG. 45A-45D show tumor growth inhibition activity of RFX-980869 and lack of immunogenicity. […] N=6 mice per group. (FIG. 45B) Day 15 tumor volumes (*p<0.05, Mann-whitney test) (FIG. 45C) Anti-drug-antibodies from MC38 tumor study measured in Day 22 serum samples using an ELISA for antigen-specific serum IgG. (FIG. 45D) Anti-drug-antibody titers measured from Day 42 serum after subcutaneous immunization of corresponding drugs in BALB/c mice. N=5 mice per group. All data is plotted as mean±SEM.

The target of a further data set is D-VEGF-A. Description: competitive phage ELISA, D-VEGF-A binding of L-peptidic compounds. The note with it: D-VEGF-A binding activity.

One may read the IC50 as the concentration needed to halve the response being measured. A low value points to greater potency in that assay.

Protocol for D-VEGF-A: Compounds of interest were assessed for VEGF-A binding in a competitive phage ELISA assay.

On to nivolumab, for which the “anti-drug-antibody IgG titer after immunization” value in data set [1] was “strong IgG titers”. For the same substance, the “tumor growth versus vehicle control group” value in the data set on MC38 colon cancer tumors (1 mg/kg biweekly, i.p.) is “failed to show tumor growth inhibition”. Moreover, the “MC38 tumor growth curves” value with MC38 colon cancer tumors (FIG. 45A, over both dose levels) is listed as “dose-dependent efficacy”. The substance also yielded a tumor growth inhibition in the data set on MC38 colon cancer tumors (day 15, 3 mg/kg biweekly) of 48%. Further, the “anti-drug-antibodies, antigen-specific serum IgG titer” value in data set [2] was “saturating levels of IgG titer”.
The substance “tidqwllknakedaiaelkkcGitephvisfinhapyvshvnGlkanilkaha [Compound 1.1.1]” yielded an IC50 on D-VEGF-A of 20 to 34 nM.

The values above are taken from patent publication US20210061861A1, “D-PEPTIDIC COMPOUNDS FOR VEGF” (Reflexion Pharmaceuticals, Inc., priority 2019, published 2021).
